Assay results published in PubChem BioAssay (NCI).
Values joined by “and” are separate entries in the source; they are usually repeats but may differ in a detail not shown here. Identical values can stand only once.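 Cultured in 96-well plates, cells were exposed to test compound for 48 hours across five concentrations. GI50: concentration for 50% inhibition of growth. Definition used: TGI = concentration required for complete inhibition of growth.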

What was measured:
Test in all cases: inhibition of tumour cell growth, NCI panel, 48 h
MCF7 breast = tested on: MCF7 breast
MOLT-4 leukemia = tested on: MOLT-4 leukemia
SF-268 CNS = tested on: SF-268 CNS
NCI-H460 lung = tested on: NCI-H460 lung
HCT-116 colon = tested on: HCT-116 colon
HCC-2998 colon = tested on: HCC-2998 colon
OVCAR-8 ovarian = tested on: OVCAR-8 ovarian
NCI-H23 lung = tested on: NCI-H23 lung
786-0 renal = tested on: 786-0 renal
SK-MEL-2 melanoma = tested on: SK-MEL-2 melanoma

Compound | GI50 (MCF7 breast) | TGI (MCF7 breast) | GI50 (MOLT-4 leukemia) | TGI (MOLT-4 leukemia) | GI50 (SF-268 CNS) | TGI (SF-268 CNS) | GI50 (NCI-H460 lung) | TGI (NCI-H460 lung) | GI50 (HCT-116 colon) | TGI (HCT-116 colon) | GI50 (HCC-2998 colon) | TGI (HCC-2998 colon) | GI50 (OVCAR-8 ovarian) | TGI (OVCAR-8 ovarian) | GI50 (NCI-H23 lung) | TGI (NCI-H23 lung) | GI50 (786-0 renal) | TGI (786-0 renal) | GI50 (SK-MEL-2 melanoma) | TGI (SK-MEL-2 melanoma)
CNCCCNc1nc2ccccc2c2c(=O)c3cc(OC)ccc3sc12 | 1.69 µM | 3.32 µM | 2.06 µM | 4.41 µM | 1.71 µM | 3.42 µM | 1.67 µM | 3.13 µM | 1.78 µM | 3.52 µM | 1.82 µM | 3.49 µM | 2.17 µM | 5.34 µM | 1.7 µM | 3.19 µM | 1.66 µM | 3.17 µM | 2.04 µM | 4.44 µM
CCCOC(=O)c1c(C)n(C)c2scc[n+]12 | 31.2 µM | > 100 µM | 53.9 µM | > 100 µM | 48 µM | > 100 µM | 52.8 µM | > 100 µM | 35.8 µM | > 100 µM | 55.9 µM | > 100 µM | 49.2 µM | > 100 µM | 34.2 µM | > 100 µM | 80.1 µM | > 100 µM | 64.1 µM | > 100 µM
COc1ccc(-c2cc3c(C)nc(N)nc3n(C3CCC(OCCO)CC3)c2=O)cn1 (stereo not given) | 0.0266 µM and 0.0228 µM | > 10 µM and 1.03 µM | 0.0677 µM and 0.0626 µM | > 10 µM and 7.35 µM | 0.0784 µM and 0.0779 µM | > 4.35 µM and 5.49 µM | 0.0629 µM and 0.0475 µM | > 35.3 µM | 0.243 µM and 0.222 µM | > 10 µM and 18.9 µM | 0.0941 µM and 0.13 µM | 1.8 µM and 1.71 µM | 0.141 µM and 0.128 µM | 2.36 µM and 1.41 µM | 0.156 µM and 0.0977 µM | > 6.91 µM | 0.0694 µM and 0.0605 µM | 0.614 µM and 0.442 µM | 0.124 µM and 0.0674 µM | 0.549 µM and 0.392 µM
O=C1CSC(c2ccccc2Cl)N1c1nnc(Cn2cnnc2)o1 (stereo not given) | 1.63 µM | 13.2 µM | 7.27 µM | 26.1 µM | 13.9 µM | 93.7 µM | 7.91 µM | 43.8 µM | 4.09 µM | 18.4 µM | 12.3 µM | 27.2 µM | 30.2 µM | > 100 µM | 16.4 µM | > 100 µM | 13.8 µM | 33.4 µM | 22.6 µM | 94.8 µM
CC(=O)N1CCN(CCNC(=O)n2cc(-c3ccncc3)c(-c3cc(O)cc(Cl)c3)n2)CC1 | 14.7 µM | 32.9 µM | 10.4 µM | 49.2 µM | 14.6 µM | 35.2 µM | 10.1 µM | 26.3 µM | 5.47 µM | 18.8 µM | 17.2 µM | 32.2 µM | 12.2 µM | > 100 µM | 17.1 µM | 46 µM | 10.2 µM | 23.3 µM | 10.8 µM | 27 µM
CCCc1cc(=O)n2c(C(=O)Nc3ccc(F)cc3)c(C(=O)Nc3ccc(F)cc3)sc2n1 | 54.8 µM | > 160 µM | > 160 µM | > 160 µM | 18.8 µM | 95.6 µM | 73.4 µM | > 160 µM | 18.3 µM | > 160 µM | > 160 µM | > 160 µM | 4.57 µM | 28 µM | > 160 µM | > 160 µM | 2.64 µM | 13.3 µM | 24.1 µM | 54.4 µM
N#CC1=C(N)Oc2c(ccc3ccccc23)C1c1cc(=O)oc2ccc(Cl)cc12 (stereo not given) | 0.347 µM | 22.1 µM | 0.887 µM | 87.8 µM | 2.02 µM | > 100 µM | 0.466 µM | 14 µM | 0.406 µM | 23.8 µM | 2.72 µM | 19.5 µM | 1.87 µM | 24 µM | 4.96 µM | > 100 µM | 0.646 µM | > 100 µM | 0.972 µM | 44.7 µM
CN(C)CC1CC/C(=C\c2ccc3c(c2)OCO3)C1=O (stereo not given) | – | 19.8 µM | – | 13.8 µM | – | 26.7 µM | – | 47.9 µM | – | 18.6 µM | – | 50.7 µM | – | 19.2 µM | – | 24.4 µM | – | 13 µM | – | 22.8 µM
